Results: US20240270695A1, “COMPOUNDS, COMPOSITIONS AND METHODS OF TREATING DISORDERS” (Chengdu Anticancer Bioscience LTD, priority 2021, published 2024)

Legend:
[1] = system: RPE-Neo or RPE-MYC or RPE-MYC expressing an EGFP-Histone 2B fusion protein; assay: Phenotypic screening assay (arrest in mitosis, change in DNA content, cell death; GE IN-Cell Analyzer 2000); assay type: cell-based; settings: Homo sapiens, compounds 20 nM to 20 μM, 24, 48 or 72 hours
[2] = system: RPE-Neo or RPE-MYC or RPE-MYC expressing an EGFP-Histone 2B fusion protein; assay: MTT assays of cellular proliferation; assay type: cell-based; settings: Homo sapiens, min. effective conc., read-out: Proliferative arrest (<50%)
[3] = read-out: Min. Effective conc. for Polyploidy (≥10%)
[4] = min. effective conc., read-out: Cell Death (>30%)
[5] = min. effective conc., read-out: Mitotic Arrest (≥10%)

SMILES	minimal effective concentration [1, 3] [µM]	minimal effective concentration [1, 4] [µM]	minimal effective concentration [1, 5] [µM]	minimal effective concentration [2] [µM]
CNC(=O)C1=C(O)c2cc(C)ccc2N(Cc2ccc(C)c(F)c2)C(=O)C1 [Example 136, 1-(3-fluoro-4-methylbenzyl)-5-hydroxy-N,7-dimethyl-2-oxo-2,3-dihydro-1H-benzo[b]azepine-4-carboxamide]	1 to 10	1 to 10	1 to 10	1 to 10
CC(c1ccc(F)cc1)N1C(=O)CCC(=O)c2ccccc21 (stereo not drawn) [Example 82, 1-(1-(4-fluorophenyl)ethyl)-3,4-dihydro-1H-benzo[b]azepine-2,5-dione]	30 to 1000	30 to 1000	30 to 1000	30 to 1000
CNC(=O)C1=C(O)c2ccccc2N(Cc2ccccc2C)C(=O)C1 [Example 81, 5-hydroxy-N-methyl-1-(2-methylbenzyl)-2-oxo-2,3-dihydro-1H-benzo[b]azepine-4-carboxamide]	30 to 1000	30 to 1000	30 to 1000	30 to 1000
CNC(=O)C1=C(O)c2ccccc2N(Cc2cccc(OC)c2)C(=O)C1 [Example 92, 5-hydroxy-1-(3-methoxybenzyl)-N-methyl-2-oxo-2,3-dihydro-1H-benzo[b]azepine-4-carboxamide]	10 to 30	10 to 30	10 to 30	10 to 30
CNC(=O)C1=C(O)c2ccccc2N(Cc2cc(C)cc(C)c2)C(=O)C1 [Example 97, 1-(3,5-dimethylbenzyl)-5-hydroxy-N-methyl-2-oxo-2,3-dihydro-1H-benzo[b]azepine-4-carboxamide]	1 to 10	1 to 10	1 to 10	1 to 10
CNC(=O)C1=C(O)c2ccccc2N(Cc2cc(F)ccc2C)C(=O)C1 [Example 115, 1-(5-fluoro-2-methylbenzyl)-5-hydroxy-N-methyl-2-oxo-2,3-dihydro-1H-benzo[b]azepine-4-carboxamide]	30 to 1000	30 to 1000	10 to 30	30 to 1000
CNC(=O)C1=C(O)c2ccccc2N(Cc2ccc(C(F)(F)F)cc2)C(=O)C1 [Example 84, 5-hydroxy-N-methyl-2-oxo-1-(4-(trifluoromethyl)benzyl)-2,3-dihydro-1H-benzo[b]azepine-4-carboxamide]	30 to 1000	30 to 1000	10 to 30	30 to 1000
CNC(=O)C1=C(O)c2ccccc2N(Cc2cc(F)c(OC)c(F)c2)C(=O)C1 [Example 122, 1-(3,5-difluoro-4-methoxybenzyl)-5-hydroxy-N-methyl-2-oxo-2,3-dihydro-1H-benzo[b]azepine-4-carboxamide]	30 to 1000	30 to 1000	30 to 1000	30 to 1000
CNC(=O)C1=C(O)c2ccc(OC)cc2N(Cc2ccc(C)c(F)c2)C(=O)C1 [Example 127, 1-(3-fluoro-4-methylbenzyl)-5-hydroxy-8-methoxy-N-methyl-2-oxo-2,3-dihydro-1H-benzo[b]azepine-4-carboxamide]	0.001 to 1	0.001 to 1	0.001 to 1	0.001 to 1
CNC(=O)C1=C(O)c2ccccc2N(Cc2ccc(F)c(F)c2)C(=O)C1 [Example 102, 1-(3,4-difluorobenzyl)-5-hydroxy-N-methyl-2-oxo-2,3-dihydro-1H-benzo[b]azepine-4-carboxamide]	30 to 1000	30 to 1000	30 to 1000	30 to 1000
CNC(=O)C1=C(O)c2ccccc2N(Cc2ccc(C)c(Br)c2)C(=O)C1 [Example 120]	10 to 30	10 to 30	10 to 30	10 to 30
CNC(=O)C1=C(O)c2ccc(-c3cnn(C)c3)cc2N(Cc2ccc(C)c(F)c2)C(=O)C1 [Example 138, 1-(3-fluoro-4-methylbenzyl)-5-hydroxy-N-methyl-8-(1-methyl-1H-pyrazol-4-yl)-2-oxo-2,3-dihydro-1H-benzo[b]azepine-4-carboxamide]	1 to 10	1 to 10	1 to 10	1 to 10
CNC(=O)C1=C(O)c2ccc(OCc3ccsc3)cc2N(Cc2ccc(C)c(F)c2)C(=O)C1 [Example 134, 1-(3-fluoro-4-methylbenzyl)-5-hydroxy-N-methyl-2-oxo-8-(thiophen-3-ylmethoxy)-2,3-dihydro-1H-benzo[b]azepine-4-carboxamide]	1 to 10	1 to 10	1 to 10	1 to 10
CNC(=O)C1=C(O)c2ccccc2N(Cc2cccnc2)C(=O)C1 [Example 75, 5-hydroxy-N-methyl-2-oxo-1-(pyridin-3-ylmethyl)-2,3-dihydro-1H-benzo[b]azepine-4-carboxamide]	30 to 1000	30 to 1000	30 to 1000	30 to 1000
CCc1ccc(CN2C(=O)CC(C(=O)NC)=C(O)c3ccccc32)cc1 [Example 86, 1-(4-ethylbenzyl)-5-hydroxy-N-methyl-2-oxo-2,3-dihydro-1H-benzo[b]azepine-4-carboxamide]	1 to 10	1 to 10	1 to 10	1 to 10
CNC(=O)C1=C(O)c2ccccc2N(CC2CC2)C(=O)C1 [Example 70, 1-(cyclopropylmethyl)-5-hydroxy-N-methyl-2-oxo-2,3-dihydro-1H-benzo[b]azepine-4-carboxamide]	30 to 1000	30 to 1000	30 to 1000	30 to 1000
CNC(=O)C1=C(O)c2ccccc2N(Cc2ccccc2)C(=O)C1 [Example 72, 1-benzyl-5-hydroxy-N-methyl-2-oxo-2,3-dihydro-1H-benzo[b]azepine-4-carboxamide]	30 to 1000		30 to 1000	30 to 1000
COc1ccc2c(c1)N(Cc1ccc(C)c(F)c1)C(=O)CC(C(=O)C1CC1)=C2O [Example 141, 4-(cyclopropanecarbonyl)-1-(3-fluoro-4-methylbenzyl)-5-hydroxy-8-methoxy-1,3-dihydro-2H-benzo[b]azepin-2-one]	0.001 to 1	0.001 to 1	0.001 to 1	0.001 to 1
CNC(=O)C1=C(O)c2ccccc2N(Cc2ccc(F)c(C)c2)C(=O)C1 [Example 109, 1-(4-fluoro-3-methylbenzyl)-5-hydroxy-N-methyl-2-oxo-2,3-dihydro-1H-benzo[b]azepine-4-carboxamide]	10 to 30	30 to 1000	10 to 30	30 to 1000
